The values below come from patent US20250296942A1, “Phosphonate-Based Coordination Complexes and Methods of Preparation and Use Thereof” (University of Puerto Rico, priority 2021, published 2025).

Several values for one entry are separate records, joined by “and”; a condition that tells them apart may be missing. Identical values can stand only once.

Series [1] in a line: Dissolution of 2,2′-BPBPA-based BPCCs in PBS (2,2′-BPBPA released, 299 nm). It counts as physicochemical. As to conditions: 37° C., 150 rpm, mean n = 2. Here is the method:
Dissolution experiment. In a 250 mL beaker was tranfer 100 mL of PBS or FaSSGF.
Subsequently, this solution was allowed to reach 37° C. at 150 rpm. Then, individually ˜10.0 mg of powdered 2,2′-BPBPA-based BPCCs were added to the PBS or FaSSGF solution. Aliquots (1 mL) were taken out at different time points (0, 1, 3, 6, 24, 48, and 72 h) and diluted with PBS or FaSSGF in 5 mL volumetric flasks. An aliquot (1 mL) was taken out before adding the 2,2′-BPBPA-based BPCCs to record the first time point (0 h). The dissolution experiments were performed in duplicate for each 2,2′-BPBPA-based BPCC. The absorbance of the 2,2′-BPBPA released from these materials was assessed at 299 (PBS) and 318 (FaSSGF) nm.
The release of 2,2′-BPBPA from the coordination complexes was assessed in physiological conditions (PBS, pH=7.40 and FaSSGF, pH=1.60). The absorbance of the supernatant was measured at the lambda of maximum absorption to determine the quantity of 2,2′-BPBPA release over time in PBS (λmax=299 nm) and FaSSGF (λmax=318 nm) at 37° C. It was observed that the 2,2′-BPBPA-based BPCCs release from 8 to 13% of 2,2′-BPBPA in neutral conditions (FIG. 160A). […] In acidic conditions, these 2,2′-BPBPA-based BPCCs release from 64 to 90% of 2,2′-BPBPA. The 2,2′-BPBPA-Ca (90%) and 2,2′-BPBPA-Zn (84%) presented the highest release of the ligand contrasted with 2,2′-BPBPA-Mg (64%) in FaSSGF (FIG. 160B). In particular, the 2,2′-BPBPA-Ca collapsed almost completely, indicating the possible ability of this material to degrade once in the acid environment of metastatic cancerous cells and be able to release potential cargo drugs.
Dissolution experiment. In a 250 mL beaker was tranfer 100 mL of PBS. Subsequently, this solution was allowed to reach 37° C. at 150 rpm. Then, individually ˜10.0 mg of powdered 2,2′-BPBPA-based BPCCs were added to the PBS solution. Aliquots (1 mL) were taken out at different time points (0, 1, 3, 6, 24, 48, and 72 h) and diluted with PBS in 5 mL volumetric flasks. An aliquot (1 mL) was taken out before adding the 2,2′-BPBPA-based BPCCs to record the first time point (0 h). The absorbance of the 2,2′-BPBPA released from these materials was assessed at 299 nm. The dissolution experiments were performed in duplicate for each 2,2′-BPBPA-based BPCC. The percentage (%) of 2,2′-BPBPA released in PBS from these complexes is illustrated in Table 30.

The conditions of series [2]: PBS pH 7.40.
The nature of series [3]: Hydroxyapatite (HA) binding assay of RISE and nano-Ca@RISE. Here is the method:
Hydroxyapatite (HA) binding assay. For the binding assay of nano-Ca@RISE, 20 mg of hydroxyapatite (HA) were exposed to 3 mL of a nano-Ca@RISE in PBS solution (0.5 mg/mL), for 0-11 days at 37° C. As control groups, RISE and HA, both in PBS, were employed. Samples were collected each day from 11 consecutive days. After each time point, the supernatant was collected and centrifuged (1,500 rpm, 8 min). […]
The capacity of nano-Ca@RISE to bind to the main constituent of the bone microenvironment, HA, under simulated physiological conditions, was evaluated through a binding assay. […]. […] […]. Therefore, a calibration curve of nano-Ca@RISE in PBS was employed for quantification of the nanocrystal's concentration in the supernatant after the binding assay.
For the nano-Ca@RISE binding assay, 20 mg of hydroxyapatite (HA), were added to 3.00 mL of nano-Ca@RISE (0.5 mg/mL) in PBS solution. HA in PBS mixture, and the binding of RISE to HA, were used as control groups. The samples were left for 0-11 days at 37° C. and 300 rpm. As a comparative method, additional binding assay for RISE “as received” was conducted employing the same parameters as for the nanocrystals. The selected time points were: 1, 2, 3, 4, 5, 7, 8, 9, 10, and 11 days. The supernatant was collected after each time point, then centrifuged (1,500 rpm, 8 min), and absorbance measurements were performed at 206 nm to determine the binding percentage of RISE from the nano-Ca@RISE to HA. FIGS. S8.6.1 and S8.6.2 illustrate the binding curves of RISE and nano-Ca@RISE to HA in PBS.

For the compound `O=P(O)(O)c1ccc(-c2ccc(P(=O)(O)O)cn2)nc1` [2,2′-BPBPA, 2,2′-bipyridine-5,5′-bisphosphonic acid], the “% Released (2,2′-BPBPA released in PBS)” value in series [1] (0 h (aliquot before addition)) stood at 0%; in series [1] (1 h), 88%; in series [1] (3 h), 90%; in series [1] (6 h) it was 91%; in series [1] (24 h), 97%; in series [1] (48 h), 97%. Also, the “% Released (2,2′-BPBPA released in PBS)” value in series [1] (72 h) stood at 97%.
On to `O=P(O)(O)C(O)(Cc1cccnc1)P(=O)(O)O` [RISE, Monosodium risedronate hemipentahydrate], for which the “time to reach maximum dissolution” value in series [2] was found to be 30 min. Also, the “time to reach maximum binding to HA” value in series [3] (PBS) turned out to be 8 days. The “maximum binding to HA” value in series [3] (PBS pH 7.40, 37 °C, 0-11 days) worked out at 76%. Further, the “bound to HA” value in series [3] (PBS pH 7.40, 37 °C, 1 day) is 18% and 17%.
